# Reference: ChEMBL document CHEMBL3826922, “Synthesis 4-[2-(2-mercapto-4-oxo-4H-quinazolin-3-yl)-ethyl]-benzenesulfonamides with subnanomolar carbonic anhydrase II and XII inhibitory properties” (Bioorg Med Chem, 2016)
# How the values were obtained:
# Carbonic anhydrase 1 = Carbonic anhydrase 1 (Homo sapiens, UniProt P00915); test: Inhibition of human CA1 preincubated for 15 mins by stopped flow CO2 hydration assay
# Carbonic anhydrase 12 = Carbonic anhydrase 12 (Homo sapiens, UniProt O43570); test: Inhibition of human CA12 preincubated for 15 mins by stopped flow CO2 hydration assay
# Sequence of Carbonic anhydrase 12 (O43570 whole entry): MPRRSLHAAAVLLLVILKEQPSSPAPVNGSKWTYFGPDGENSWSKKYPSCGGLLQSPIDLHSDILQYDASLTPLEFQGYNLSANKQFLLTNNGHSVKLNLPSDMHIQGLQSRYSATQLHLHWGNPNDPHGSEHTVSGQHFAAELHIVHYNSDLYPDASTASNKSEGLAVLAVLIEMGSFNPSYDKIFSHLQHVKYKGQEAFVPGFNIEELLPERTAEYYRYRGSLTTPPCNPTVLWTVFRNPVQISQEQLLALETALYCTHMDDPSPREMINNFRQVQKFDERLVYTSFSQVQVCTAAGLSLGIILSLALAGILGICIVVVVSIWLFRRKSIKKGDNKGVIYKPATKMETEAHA
# Carbonic anhydrase 2 = Carbonic anhydrase 2 (Homo sapiens, UniProt P00918); test: Inhibition of human CA2 preincubated for 15 mins by stopped flow CO2 hydration assay
# Sequence of Carbonic anhydrase 1 (P00915 whole entry): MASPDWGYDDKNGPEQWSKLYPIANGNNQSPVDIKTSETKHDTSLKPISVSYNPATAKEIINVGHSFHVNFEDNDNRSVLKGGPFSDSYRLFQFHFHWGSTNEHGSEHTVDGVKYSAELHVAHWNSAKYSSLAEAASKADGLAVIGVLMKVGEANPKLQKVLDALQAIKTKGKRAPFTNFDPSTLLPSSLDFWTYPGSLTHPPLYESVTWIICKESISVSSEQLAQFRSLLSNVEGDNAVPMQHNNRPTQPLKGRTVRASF
smiles,measurement,setting,value
NS(=O)(=O)c1ccc(CCn2c(=S)[nH]c3ccc(F)cc3c2=O)cc1,Ki,Carbonic anhydrase 1,212 nM
same,Ki,Carbonic anhydrase 12,0.62 nM
same,Ki,Carbonic anhydrase 2,12.4 nM
